# Experimental data reported in ChEMBL document CHEMBL3039007, “Structure-based identification of OATP1B1/3 inhibitors” (Mol Pharmacol, 2013).
# Assays:
# [1] = target: T1, Solute carrier organic anion transporter family member 1B1 (Homo sapiens, UniProt Q9Y6L6); details: chinese hamster, cho, 10 µM
# T1 sequence (Q9Y6L6 whole entry): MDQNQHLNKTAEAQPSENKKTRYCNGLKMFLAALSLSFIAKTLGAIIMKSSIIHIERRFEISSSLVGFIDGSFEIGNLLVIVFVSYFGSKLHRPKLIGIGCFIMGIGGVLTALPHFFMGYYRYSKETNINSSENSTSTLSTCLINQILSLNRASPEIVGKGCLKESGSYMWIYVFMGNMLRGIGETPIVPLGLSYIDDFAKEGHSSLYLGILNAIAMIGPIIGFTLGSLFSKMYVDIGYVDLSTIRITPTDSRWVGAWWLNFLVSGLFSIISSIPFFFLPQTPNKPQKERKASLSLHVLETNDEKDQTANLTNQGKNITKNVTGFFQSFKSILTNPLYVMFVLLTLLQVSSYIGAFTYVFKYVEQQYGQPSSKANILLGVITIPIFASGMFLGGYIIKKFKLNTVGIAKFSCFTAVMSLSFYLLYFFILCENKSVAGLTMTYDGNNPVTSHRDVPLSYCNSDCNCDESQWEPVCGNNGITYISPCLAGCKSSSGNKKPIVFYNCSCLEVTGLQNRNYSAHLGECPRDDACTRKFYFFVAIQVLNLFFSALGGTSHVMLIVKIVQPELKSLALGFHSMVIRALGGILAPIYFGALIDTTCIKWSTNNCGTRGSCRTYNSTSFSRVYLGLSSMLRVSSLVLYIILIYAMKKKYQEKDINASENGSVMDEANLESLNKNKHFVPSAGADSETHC
# [2] = target: T1, Solute carrier organic anion transporter family member 1B1
# [3] = target: T2, Solute carrier organic anion transporter family member 1B3 (Homo sapiens, UniProt Q9NPD5)
# T2 sequence (Q9NPD5 whole entry): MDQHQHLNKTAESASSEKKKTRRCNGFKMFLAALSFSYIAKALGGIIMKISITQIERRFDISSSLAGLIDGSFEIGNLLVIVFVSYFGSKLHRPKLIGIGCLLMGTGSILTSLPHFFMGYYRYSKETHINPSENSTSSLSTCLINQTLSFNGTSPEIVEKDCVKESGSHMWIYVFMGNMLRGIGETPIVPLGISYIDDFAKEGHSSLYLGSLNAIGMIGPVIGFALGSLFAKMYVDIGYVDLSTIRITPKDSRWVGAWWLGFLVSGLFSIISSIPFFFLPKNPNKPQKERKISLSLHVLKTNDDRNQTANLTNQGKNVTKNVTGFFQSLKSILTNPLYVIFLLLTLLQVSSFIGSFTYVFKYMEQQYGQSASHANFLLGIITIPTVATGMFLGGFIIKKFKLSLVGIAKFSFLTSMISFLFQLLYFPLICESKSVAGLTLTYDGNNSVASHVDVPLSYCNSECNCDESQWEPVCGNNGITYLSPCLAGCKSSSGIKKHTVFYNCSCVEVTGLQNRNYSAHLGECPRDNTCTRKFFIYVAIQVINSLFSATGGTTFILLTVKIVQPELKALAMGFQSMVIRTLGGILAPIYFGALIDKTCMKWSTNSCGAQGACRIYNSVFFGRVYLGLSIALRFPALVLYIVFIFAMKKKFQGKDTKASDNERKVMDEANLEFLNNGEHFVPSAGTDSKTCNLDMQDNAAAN
# [4] = target: T2, Solute carrier organic anion transporter family member 1B3; remark: listed apart in the source
# [5] = target: T2, Solute carrier organic anion transporter family member 1B3; details: chinese hamster, cho, 10 µM
# [6] = target: T1, Solute carrier organic anion transporter family member 1B1; remark: listed apart in the source
SMILES,residual activity [1] [%],Ki [2] [nM],IC50 [3] [nM],Ki [4] [nM],residual activity [5] [%],IC50 [6] [nM]
C=C1[C@@H]([C@@]2(C)[C@@H](OC(C)=O)CC(=O)O[C@](C)(COC(C)=O)[C@@H]2C(=O)OC)[C@@H](OC=O)[C@H](OC(=O)[C@H](O)[C@H](C)CC)[C@@]2(C)[C@H](c3ccoc3)CC(=O)[C@]12O [PRIEURIANIN],22.79,1280,3390,2630,25.49,2340
CCCCC/C=C\C/C=C\C/C=C\C/C=C\CCCC(=O)O [ARACHIDONIC ACID],23.4,330,1070,820,5.402,603
CCCCCCCCCc1ccc(OCCOCCOCCOCCOCCOCCOCCOCCOCCO)cc1 [NONOXYNOL 9],32.74,1920,3720,2870,27.96,3470
CC(=O)O[C@@H]1C[C@H]2C(C)(C)C(=O)CC[C@]2(C)[C@H]2CC[C@]3(C)C(=CC(=O)O[C@H]3c3ccoc3)[C@@]21C,22.81,1940,7760,5990,54.65,3550
Cc1cc(O)c(C=O)c2c1C(=O)Oc1c(C)c(O)c3c(c1O2)C(O)OC3=O (stereo unspecified) [NORSTICTIC ACID],10.9,630,550,420,1.823,1150
C=C1[C@@H]2CC[C@@]3(C)[C@H](c4ccoc4)OC(=O)C[C@]13O[C@H]1CC(=O)C(C)(C)[C@H](C(OC(C)=O)C(=O)OC)[C@]12C (stereo partly specified) [METHYL 6-ACETOXYANGOLENSATE],11.95,800,3800,2920,34.99,1450
CC(C)=CCCC1(C)C=Cc2c(O)c3c(c(CC=C(C)C)c2O1)OC12C(=CCCC1C(C)(C)O[C@@]2(C/C=C(\C)C(=O)O)C(=O)O)C3=O (stereo partly specified) [GARCINOLIC ACID],30.6,650,2240,1730,3.626,1170
CC(C)CCCC1(C)C=Cc2c(O)c3c(c(CCC(C)C)c2O1)OC12C(CC4CC1C(C)(C)OC2(CCC(C)C(=O)O)C4O)C3=O (stereo unspecified) [DECAHYDROGAMBOGIC ACID],12.82,620,2290,1770,18.17,1150
O=C(O)c1cc2ccccc2c(Cc2c(O)c(C(=O)O)cc3ccccc23)c1O.OCCOCCN1CCN(C(c2ccccc2)c2ccc(Cl)cc2)CC1 [HYDROXYZINE PAMOATE],12.16,450,1230,940,13.57,813
CC(=O)O[C@@H]1CC[C@]2(C)[C@H](C[C@@H](OC(C)=O)[C@]3(C)C4=CC(=O)O[C@H](c5ccoc5)[C@@]4(C)CC[C@@H]23)C1(C)C,18.95,440,1410,1080,8.019,813
COC(=O)C[C@H]1C2(C)CC34OC5(C)O[C@@]6([C@H](OC(C)=O)C(OC(C)=O)[C@]7(C)C(/C(=C(/O)C(C)C)C(=O)O[C@H]7c7ccoc7)[C@@]6(O5)[C@H](OC(C)=O)[C@@]3(O)C2OC(=O)C(C)C)[C@]14C (stereo partly specified) [BUSSEIN],7.307,380,692,530,5.392,692
O=c1c(-c2ccc(O)cc2)coc2cc(O)cc(O)c12 [GENISTEIN],95.56,5000,3890,2960,39.06,9120
Cc1onc(-c2c(Cl)cccc2Cl)c1C(=O)N[C@@H]1C(=O)N2[C@@H]1SC(C)(C)[C@@H]2C(=O)[O-].O.[Na+] [DICLOXACILLIN SODIUM],11.45,370,2000,1550,9.757,676
CC(=O)O[C@@H]1C[C@@]2(C)[C@H](c3ccoc3)C[C@H]3O[C@]32[C@]2(C)C(=O)C(O)=C3C(C)(C)C(=O)C=C[C@]3(C)C12 (stereo partly specified) [ANTHOTHECOL],20.37,1650,3470,2640,12.42,3020
C[C@@H]1O[C@H](O[C@@H]2[C@@H](O)[C@H](O[C@@H]3[C@@H](O)[C@@H](O)[C@@H](O[C@H]4[C@@H](OC(=O)[C@]56CCC(C)(C)C[C@@H]5C5=CC[C@@H]7[C@@]8(C)CC[C@H](O[C@@H]9O[C@H](CO)[C@@H](O)[C@H](O)[C@H]9O)C(C)(C)[C@@H]8CC[C@@]7(C)[C@]5(C)C[C@H]6O)OC[C@@H](O)[C@@H]4O)O[C@H]3C)OC[C@H]2O)[C@H](O)[C@H](O)[C@H]1O,25.14,1820,5250,4020,17.42,3310
CCC(C)C(=O)O[C@@H]1C[C@@]2(C)[C@H](c3ccoc3)OC(=O)CC23OC2(C)O[C@]14[C@]1(C)[C@@H](CC(=O)OC)C5(C)CC1(O)[C@](O)(C5OC(=O)C1(C)OC1C)[C@@H](OC(C)=O)[C@]34O2 (stereo partly specified) [UTILIN],-3.778,380,776,600,2.658,676
O=C(OC[C@H]1O[C@@H](OC(=O)c2cc(O)c(O)c(OC(=O)c3cc(O)c(O)c(O)c3)c2)[C@H](OC(=O)c2cc(O)c(O)c(OC(=O)c3cc(O)c(O)c(O)c3)c2)[C@@H](OC(=O)c2cc(O)c(O)c(OC(=O)c3cc(O)c(O)c(O)c3)c2)[C@@H]1OC(=O)c1cc(O)c(O)c(OC(=O)c2cc(O)c(O)c(O)c2)c1)c1cc(O)c(O)c(OC(=O)c2cc(O)c(O)c(O)c2)c1 [TANNIC ACID],18.66,1460,4170,3230,10.59,2630
"COC(=O)CC[C@@H](C)[C@H]1CC[C@H]2[C@@H]3[C@H](O)C[C@@H]4C[C@H](O)CC[C@]4(C)[C@H]3C[C@H](O)[C@]12C [CHOLIC ACID, METHYL ESTER]",26.02,4580,3720,2890,40.87,8320
CC(=O)O[C@H]1C[C@@H](OC(C)=O)C(C)(C)[C@@H]2C[C@@H](OC(C)=O)[C@]3(C)[C@H]([C@H](OC(C)=O)C[C@@]4(C)[C@H](c5ccoc5)OC(=O)[C@H]5O[C@@]534)[C@@]12C,20.57,480,3980,3050,46.1,871
CC[C@@H](C(=O)[C@@H](C)[C@@H](O)[C@H](C)CCc1ccc(C)c(O)c1C(=O)[O-])[C@H]1O[C@](CC)([C@H]2CC[C@](O)(CC)[C@H](C)O2)C[C@@H]1C.[Na+] [LASALOCID A SODIUM],10.29,260,776,590,6.678,479
COC(=O)c1c(C)c2c(c(C)c1O)OC(=O)c1c(C)c(Cl)c(O)c(Cl)c1O2 [LEOIDIN],7.804,80,2400,1840,14.63,145
